Key:
Assay in all cases: in vitro antibacterial evaluation, MIC by broth dilution
Assay type in all cases: cell-based
[1] = tested on: Enterococcus sp.; conditions: broth dilution, 18 hours at 35° C.
Summary of the method: (§1)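 MIC = lowest antibiotic concentration preventing visible growth; inoculum 5×10^5 CFU/mL; drug range 64-0.06 μg/mL; Muller-Hinton II […]; NCCLS M7-A2 guidance.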

[2] = tested on: Escherichia coli; conditions: 18 hours at 35° C.
Summary of the method: as §1

[3] = tested on: Staphylococcus sp.; conditions: broth dilution, 18 hours at 35° C.
Summary of the method: as §1

[4] = tested on: Streptococcus sp.; conditions: broth dilution, 18 hours at 35° C.
Summary of the method: as §1

[5] = Enterococcus faecalis (ATCC 29212)
[6] = Enterococcus faecalis (GC 4553)
[7] = Enterococcus faecalis (GC 4554)

CC(C)=CCCC1OCC2OC(OC3C(CO)OC(Oc4ccc(CC5NC(=O)C(C(C)c6ccccc6)NC(=O)CNC(=O)C(CO)NC(=O)C(C(O)C6CNC(=N)N6C6OC(CO)C(O)C(O)C6O)NC(=O)C(C(O)C6CNC(=N)N6)NC5=O)cc4)C(O)C3O)C(O)C(O)C2O1 (stereo not shown) [Example 123]
>64 µg/mL: MIC Escherichia coli (ATCC 25922) ([2]; strain ATCC 25922) | MIC Escherichia coli (GC 4559) ([2]; strain GC 4559)
1 µg/mL: MIC Streptococcus pneumoniae (ATCC 6301) ([4]; Streptococcus pneumoniae (ATCC 6301)) | MIC Streptococcus pneumoniae (GC 1894) ([4]; Streptococcus pneumoniae (GC 1894)) | MIC Streptococcus pneumoniae (ATCC 6301) ([4]; strain ATCC 6301) | MIC Streptococcus pneumoniae (GC 1894) ([4]; strain GC 1894)
4 µg/mL: MIC Staphylococcus aureus (GC 4541) [3] | MIC Staphylococcus aureus (GC 4542) [3] | MIC Staphylococcus aureus (GC 4541) ([3]; strain GC 4541) | MIC Staphylococcus aureus (GC 4542) ([3]; strain GC 4542) | MIC Staphylococcus aureus-SMITH (GC 4543) ([3]; strain GC 4543) | MIC Coagulase Negative Staphylococcus (GC 4548) ([3]; strain GC 4548) | MIC Coagulase Negative Staphylococcus (GC 4549) ([3]; strain GC 4549) | MIC Coagulase Negative Staphylococcus (GC 6257) ([3]; strain GC 6257) | MIC Staphylococcus aureus-SMITH (GC 4543) ([3]; strain SMITH GC 4543)
16 µg/mL: MIC Enterococcus avium (GC 4558) ([1]; Enterococcus avium (GC 4558)) | MIC Enterococcus faecalis (GC 2691) ([1]; Enterococcus faecalis (GC 2691)) | MIC Enterococcus faecalis (GC 3059) ([1]; Enterococcus faecalis (GC 3059)) | MIC Enterococcus faecalis (GC 4553) [1, 6] | MIC Enterococcus faecalis (GC 4554) [1, 7] | MIC Enterococcus faecalis (GC 2691) ([1]; strain GC 2691) | MIC Enterococcus faecalis (GC 3059) ([1]; strain GC 3059) | MIC Enterococcus faecalis (GC 4553) ([1]; strain GC 4553) | MIC Enterococcus faecalis (GC 4554) ([1]; strain GC 4554) | MIC Enterococcus avium (GC 4558) ([1]; strain GC 4558)
2 µg/mL: MIC Streptococcus agalactiae (GC 4564) ([4]; Streptococcus agalactiae (GC 4564)) | MIC Streptococcus pneumoniae (GC 4565) ([4]; Streptococcus pneumoniae (GC 4565)) | MIC Streptococcus agalactiae (GC 4564) ([4]; strain GC 4564) | MIC Streptococcus pneumoniae (GC 4565) ([4]; strain GC 4565)
8 µg/mL: MIC Enterococcus faecalis (ATCC 29212) [1, 5] | MIC Enterococcus faecalis (GC 2242) ([1]; Enterococcus faecalis (GC 2242)) | MIC Enterococcus faecalis (GC 4552) ([1]; Enterococcus faecalis (GC 4552)) | MIC Enterococcus faecalis (GC 6189) ([1]; Enterococcus faecalis (GC 6189)) | MIC Enterococcus faecium (GC 2243) ([1]; Enterococcus faecium (GC 2243)) | MIC Enterococcus faecium (GC 4556) ([1]; Enterococcus faecium (GC 4556)) | MIC Enterococcus faecium (GC 4557) ([1]; Enterococcus faecium (GC 4557)) | MIC Enterococcus faecalis (ATCC 29212) ([1]; strain ATCC 29212) | MIC Enterococcus faecalis (GC 2242) ([1]; strain GC 2242) | MIC Enterococcus faecium (GC 2243) ([1]; strain GC 2243) | MIC Enterococcus faecalis (GC 4552) ([1]; strain GC 4552) | MIC Enterococcus faecium (GC 4556) ([1]; strain GC 4556) | MIC Enterococcus faecium (GC 4557) ([1]; strain GC 4557) | MIC Enterococcus faecalis (GC 6189) ([1]; strain GC 6189) | MIC Escherichia coli (GC 4560) ([2]; strain GC 4560) | MIC Staphylococcus aureus (ATCC 29213) [3] | MIC Staphylococcus aureus (GC 1131) [3] | MIC Staphylococcus aureus (GC 3051) [3] | MIC Staphylococcus aureus (GC 3053) [3] | MIC Staphylococcus aureus (GC 4544) [3] | MIC Staphylococcus aureus (GC 4545) [3] | MIC Staphylococcus aureus (GC 1131) ([3]; inoculum 5×10^5 CFU/mL, strain GC 1131) | MIC Staphylococcus aureus (ATCC 29213) ([3]; strain ATCC 29213) | MIC Staphylococcus aureus (GC 3051) ([3]; strain GC 3051) | MIC Staphylococcus aureus (GC 3053) ([3]; strain GC 3053) | MIC Staphylococcus aureus (GC 4544) ([3]; strain GC 4544) | MIC Staphylococcus aureus (GC 4545) ([3]; strain GC 4545) | MIC Staphylococcus haemolyticus (GC 4546) ([3]; strain GC 4546) | MIC Coagulase Negative Staphylococcus (GC 4547) ([3]; strain GC 4547) | MIC Coagulase Negative Staphylococcus (GC 4551) ([3]; strain GC 4551)
0.5 µg/mL: MIC Streptococcus pyogenes (GC 4563) ([4]; Streptococcus pyogenes (GC 4563)) | MIC Streptococcus pyogenes (GC 4563) ([4]; strain GC 4563)

CC(C)CC(=O)OC1C(OC2C(CO)OC(Oc3ccc(CC4NC(=O)C(C(C)c5cccs5)NC(=O)CNC(=O)C(CO)NC(=O)C(C(O)C5CNC(=N)N5C5OC(CO)C(O)C(O)C5O)NC(=O)C(C(O)C5CNC(=N)N5)NC4=O)cc3)C(O)C2O)OC(CO)C(O)C1O (stereo not shown) [Example 265a, Cyclo[3-(2-thienyl)-2-aminobutanoyl-O-[4-O-[2-O-(3-methylbutanoyl)hexopyranosyl]hexopyranosyl]tyrosyl-3-(2-iminoimidazolidin-4-yl)seryl-3-(3-hexopyranosyl-2-iminoimidazolidin-4-yl)serylserylglycyl]]
8 µg/mL: MIC Enterococcus faecium (GC 4557) ([1]; Enterococcus faecium (GC 4557)) | MIC Enterococcus faecium (GC 4557) ([1]; strain GC 4557) | MIC Coagulase Negative Staphylococcus (GC 4547) [3] | MIC Coagulase Negative Staphylococcus (GC 4548) [3] | MIC Coagulase Negative Staphylococcus (GC 4551) [3] | MIC Staphylococcus aureus (GC 4544) [3] | MIC Staphylococcus aureus-SMITH (GC 4543) [3] | MIC Staphylococcus haemolyticus (GC 4546) [3] | MIC Staphylococcus aureus (GC 4544) ([3]; strain GC 4544) | MIC Staphylococcus haemolyticus (GC 4546) ([3]; strain GC 4546) | MIC Coagulase Negative Staphylococcus (GC 4547) ([3]; strain GC 4547) | MIC Coagulase Negative Staphylococcus (GC 4548) ([3]; strain GC 4548) | MIC Coagulase Negative Staphylococcus (GC 4551) ([3]; strain GC 4551) | MIC Staphylococcus aureus-SMITH (GC 4543) ([3]; strain SMITH GC 4543)
32 µg/mL: MIC Staphylococcus aureus (GC 1131) [3] | MIC Staphylococcus aureus (GC 1131) ([3]; strain GC 1131)
4 µg/mL: MIC Escherichia coli (GC 4560) ([2]; Escherichia coli (GC 4560)) | MIC Coagulase Negative Staphylococcus (GC 4549) [3] | MIC Coagulase Negative Staphylococcus (GC 4549) ([3]; strain GC 4549) | MIC Streptococcus agalactiae (GC 4564) ([4]; strain GC 4564) | MIC Streptococcus pyogenes (ID-3187) ([4]; strain ID-3187)
16 µg/mL: MIC Staphylococcus aureus (ATCC 29213) [3] | MIC Staphylococcus aureus (GC 4541) [3] | MIC Staphylococcus aureus (GC 4542) [3] | MIC Staphylococcus aureus (GC 4545) [3] | MIC Staphylococcus aureus (ATCC 29213) ([3]; strain ATCC 29213) | MIC Staphylococcus aureus (GC 4541) ([3]; strain GC 4541) | MIC Staphylococcus aureus (GC 4542) ([3]; strain GC 4542) | MIC Staphylococcus aureus (GC 4545) ([3]; strain GC 4545)
>64 µg/mL: MIC Enterococcus faecalis (GC 4553) [1, 6] | MIC Enterococcus faecalis (GC 4554) [1, 7] | MIC Enterococcus faecium (GC 2243) ([1]; Enterococcus faecium (GC 2243)) | MIC Enterococcus faecium (GC 2243) ([1]; strain GC 2243) | MIC Enterococcus faecalis (GC 4552) ([1]; strain GC 4552) | MIC Enterococcus faecalis (GC 4553) ([1]; strain GC 4553) | MIC Enterococcus faecalis (GC 4554) ([1]; strain GC 4554) | MIC Escherichia coli (ATCC 25922) ([2]; Escherichia coli (ATCC 25922)) | MIC Escherichia coli (GC 4559) ([2]; Escherichia coli (GC 4559))
64 µg/mL: MIC Enterococcus avium (GC 4558) ([1]; Enterococcus avium (GC 4558)) | MIC Enterococcus faecalis (ATCC 29212) [1, 5] | MIC Enterococcus faecium (GC 4556) ([1]; Enterococcus faecium (GC 4556)) | MIC Enterococcus faecalis (ATCC 29212) ([1]; strain ATCC 29212) | MIC Enterococcus faecalis (GC 2242) ([1]; strain GC 2242) | MIC Enterococcus faecium (GC 4556) ([1]; strain GC 4556) | MIC Enterococcus avium (GC 4558) ([1]; strain GC 4558)

Reference: US6914045B2, “Glycopeptide antibiotics” (Wyeth Holdings Corporation, priority 2001, dated 2005)
